pIC50: −log10 of the molar value.

This experiment deals with T1, Dihydroorotate dehydrogenase (quinone), mitochondrial [30-395] (Homo sapiens, UniProt Q02127).
T1 construct: 30-395
The experiment in a line: DHODH Inhibition Assay. The note with it: pH 8; 25 °C. The protocol: The assays were carried out by using a colorimetric DCIP method, which uses the colorimetric reagent 2, 6-dichlorophenolindophenol as the final electron acceptor. DCIP reduction is stoichiometrically equivalent to oxidation of dihydroorotate. Changes in absorbance were quantified in triplicate on a plate reader and data were analyzed to measure the reduction of DCIP as a decrease in absorbance at 610 nm. […] Each data point was recorded in triplicates on a single measurement day.

T1 sequence (Q02127 30-395): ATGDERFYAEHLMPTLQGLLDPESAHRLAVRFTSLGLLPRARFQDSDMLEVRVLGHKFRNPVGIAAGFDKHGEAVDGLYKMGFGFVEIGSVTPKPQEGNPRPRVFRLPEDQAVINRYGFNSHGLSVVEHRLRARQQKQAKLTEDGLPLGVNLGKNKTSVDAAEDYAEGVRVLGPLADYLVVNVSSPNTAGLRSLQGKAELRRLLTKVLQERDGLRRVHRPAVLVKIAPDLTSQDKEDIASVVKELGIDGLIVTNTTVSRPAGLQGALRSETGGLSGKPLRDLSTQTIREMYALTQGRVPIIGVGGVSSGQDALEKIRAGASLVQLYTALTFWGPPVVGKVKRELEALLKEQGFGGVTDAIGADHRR

Take `O=C(O)c1cscc1C(=O)Nc1c(F)cc(-c2cccc(OC(F)(F)F)c2)cc1F` [4-({2,6-difluoro-4-[3-(trifluoromethoxy)phenyl]phenyl}carbamoyl)thiophene-3-carboxylic acid]: the pIC50 was 8.00.

Broadly, the pIC50 is the negative decadic logarithm of the IC50, by convention in mol/L.

Values taken from BindingDB's records for doi:10.1016/j.bmcl.2005.10.011 (4Sc, 2006).
